One assay relates to A549. The assay is described as follows: viability loss in A549 cells – cell-based, plate reader, cherry-pick samples, cytotoxicity control, dose response (AID 687028). The conditions noted are these: Homo sapiens. The assay is classed as functional.
Assay [1] relates to BJ. The assay is described as follows: cells. It counts as functional, cell-based. The conditions noted are these: Homo sapiens.
The next assay has as its target Paired box protein Pax-8 (Homo sapiens, UniProt Q06710). Description: PAX8 transcriptional activity inhibition in RMG-I – RMG-I cells, luciferase, cherry-pick, dose response (AID 687027).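 Further: luciferase reporter driven by Pax8 target thyroperoxidase promoter measured by SteadyGlo luminescence.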 It counts as functional, cell-based.
Assay [2] is described as follows: DRD fibroblast viability loss – cell-based, non-viral oncogenic, luminescence, dose response (AID 1934). The assay is classed as functional. Particulars: Homo sapiens.
In assay [3] the test system is BJ. The assay is described as follows: BJ-TERT fibroblast viability loss – cell-based, RAS-independent, luminescence, dose response (AID 1933). The assay is classed as functional. The conditions noted are these: Homo sapiens.
Assay [4] is described as follows: cells. The assay is classed as functional, cell-based.
For assay [5], the system named is BJ. Description: BJ-TERT-LT-ST fibroblast viability loss – cell-based, RAS-independent, luminescence, dose response (AID 1935).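 Further: BJ fibroblasts immortalized with TERT plus LT and ST oncogenes.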 It counts as functional. Particulars: Homo sapiens.
In assay [6] the target is Nuclear receptor subfamily 0 group B member 1 (Homo sapiens, UniProt P51843). The assay is classed as functional, cell-based.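 Further: HEK293T cells transfected with SF-1 and DAX-1 plus StAR promoter luciferase reporter.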
Assay [7] in a line: NIH3T3 cell viability loss – ATP luminescence, mouse fibroblasts, counter-screen, dose response (AID 2010).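 Further: cells exposed to compound for about 90 hours before reading.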 It counts as functional, cell-based. Background: Counterscreens check selectivity or assay interference.
Assay [8] deals with Fructose-bisphosphate aldolase (Mycobacterium tuberculosis, UniProt P9WQA3). Description: Fluorescence-based biochemical high throughput dose response assay for inhibitors of the fructose-bisphosphate aldolase (FBA) of M. tuberculosis. The assay is classed as functional.
The target of a further assay is Protein Tat (Human immunodeficiency virus type 1 group M subtype B (isolate HXB2)(HIV-1), UniProt P04608). It counts as functional.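 Further: tat binding to TAR RNA read out by fluorescence polarization.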
Assay [9] is described as follows: Trypanosoma cruzi growth suppression in host cells – NIH3T3 host cells, beta-gal luminescence, confirmation (AID 2044).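 Further: intracellular parasites grown in NIH/3T3 mouse fibroblasts as host cells; luminescent beta-galactosidase reporter signal from transgenic T. cruzi replicating inside host cells; inhibitors lower the luminescence signal.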 It counts as functional, cell-based.
The nature of assay [10]: general mammalian cell viability loss – inhibitor set, cherry-pick, set 2, cytotoxicity control for miR-122 modulator project, dose response (AID 720697). It counts as functional, cell-based.
The subject of assay [11] is HEK293. Description: cells. Particulars: Homo sapiens.
Assay [12] is described as follows: loss of viability in HepG2 cells – cell-based, CellTiter-Glo, cherry-picked, cytotoxicity control for Shn3 inhibitor project, dose response (AID 624134). The assay is classed as functional.
In another assay the target is X-box-binding protein 1 (Homo sapiens, UniProt P17861). The assay is classed as functional, Cricetulus griseus.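 Further: confirmatory dose-response counter-screen serving a CHOP assay.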
Assay [13] is described as follows: cells. The assay is classed as functional, cell-based. The source holds these as a separate data set.
Assay [14] is described as follows: viability loss in HEK293T cells – cell-based, cherry-picks, cytotoxicity control for HIV Vif inhibitor project, dose response (AID 652208). It counts as functional.
Assay [15] has as its system HEK293. The assay is described as follows: cells. Particulars: Homo sapiens. This is another data set of the same source.
Assay [16] can be described thus: reduction of Shn3 3'UTR-driven luciferase in osteoblasts – cell-based, Clone20 osteoblasts, firefly luciferase, cherry-picked, dose response (AID 624132).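 Further: firefly luciferase luminescence from reporter carrying the Shn3 3'UTR in osteoblasts.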 It counts as functional.
Assay [17] in a line: non-specific 3'UTR reporter inhibition in Clone20-Shn3RL – cell-based, Renilla luciferase, cherry-picked, counter-screen for Shn3 inhibitor project, dose response (AID 624133). It counts as functional.
For assay [18], the system named is BJ. The assay is described as follows: growth inhibition of engineered Ras-driven BJ cells – cell-based, alamar blue fluorescence, cherrypicked samples, dose response (AID 2631).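 Further: confirmatory dose-response assay in RAS-dependent BJ fibroblasts engineered with TERT, LT and ST, with cytotoxicity read by fluorescence.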 It counts as functional. The conditions noted are these: Homo sapiens. On the technique in general: The colour change of resazurin is a common sign of viable cells or microbes.
For assay [19], the target named is T1, Heat shock factor protein 1 (Mus musculus, UniProt P38532).
T1 sequence (P38532 whole entry): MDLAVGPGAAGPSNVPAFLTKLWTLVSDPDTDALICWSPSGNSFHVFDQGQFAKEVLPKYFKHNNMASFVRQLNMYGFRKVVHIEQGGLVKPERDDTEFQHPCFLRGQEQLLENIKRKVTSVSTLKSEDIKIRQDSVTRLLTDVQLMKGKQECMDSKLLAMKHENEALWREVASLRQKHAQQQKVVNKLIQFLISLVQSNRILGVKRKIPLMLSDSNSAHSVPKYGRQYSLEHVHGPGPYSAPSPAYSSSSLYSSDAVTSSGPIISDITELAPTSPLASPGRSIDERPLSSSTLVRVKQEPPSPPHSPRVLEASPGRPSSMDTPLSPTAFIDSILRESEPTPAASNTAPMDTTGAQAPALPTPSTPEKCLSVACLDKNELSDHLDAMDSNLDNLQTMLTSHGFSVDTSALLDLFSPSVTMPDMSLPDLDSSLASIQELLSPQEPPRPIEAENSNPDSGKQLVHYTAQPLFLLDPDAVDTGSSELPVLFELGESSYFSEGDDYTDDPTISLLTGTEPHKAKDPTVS
The assay is described as follows: enhancement of HSF1-driven luciferase signal – cell-based, NIH3T3, luminescence, dose retest, confirmation (AID 435004).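 Further: stress induced by proteasome inhibitor MG132 added 30 min after compound; luciferase reporter driven by HSF1 response element in NIH3T3 cells; actives raise luminescence as potentiators of the MG132 stress response.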 It counts as functional.

Assay [20] in a line: cells. It counts as functional, cell-based. The source holds these as a separate data set.
The nature of assay [21]: EF1alpha-driven Renilla reporter with control 3'UTR suppression – Clone20-Shn3RL cells, dual-Glo, cherry-pick, set 2, counter-screen for Shn3 3'UTR targeting project, dose response (AID 720724). The assay is classed as functional, cell-based. Particulars: Dual-Go Shn3RL.
Assay [22] is described as follows: Shn3 3'UTR reporter signal decrease – cell-based, Clone20 osteoblasts, firefly luciferase, cherry-pick, set 2, Schnurri-3 inhibitor project, dose response (AID 720490).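 Further: actives lower the luminescence signal as inhibitors.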 It counts as functional.
Assay [23] is described as follows: T. cruzi growth inhibition in host cells, dose response, cell-based, plate reader, dry powder, set 2 (AID 652275). It counts as functional.
Assay [24] has as its target T2, Trace amine-associated receptor 1 (Homo sapiens, UniProt Q96RJ0).
T2 sequence (Q96RJ0 whole entry): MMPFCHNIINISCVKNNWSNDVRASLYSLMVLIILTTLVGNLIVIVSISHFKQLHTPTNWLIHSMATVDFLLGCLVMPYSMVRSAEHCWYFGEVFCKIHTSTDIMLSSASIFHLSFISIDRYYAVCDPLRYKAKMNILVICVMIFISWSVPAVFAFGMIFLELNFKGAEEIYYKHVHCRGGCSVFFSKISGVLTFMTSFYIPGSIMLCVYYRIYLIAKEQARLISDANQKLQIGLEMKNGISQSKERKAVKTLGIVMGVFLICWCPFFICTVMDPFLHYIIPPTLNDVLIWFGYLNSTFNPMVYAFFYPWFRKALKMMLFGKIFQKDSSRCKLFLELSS
The assay is described as follows: Fluorescence-based cell-based high throughput dose response assay to identify antagonists of the human trace amine associated receptor 1 (TAAR1). It counts as functional.

The nature of assay [25]: Counterscreen for antagonists of the human trace amine associated receptor 1 (hTAAR1): Fluorescence-based cell-based high throughput dose response assay to identify nonselective Ga16 antagonists. It counts as functional.
A short description of assay [26]: Counterscreen for […] of the human trace amine associated receptor 1 (TAAR1): Fluorescence-based cell-based high throughput dose response assay to identify nonselective Ga16 agonists. It counts as functional.
In assay [27] the target is T2, Trace amine-associated receptor 1. The assay is described as follows: Counterscreen for antagonists of the human trace amine associated receptor 1 (hTAAR1): Fluorescence-based cell-based high throughput dose response assay to identify TAAR1 Agonists. It counts as functional.
The subject of another assay is HeLa. Description: viability loss in HeLa cells – cell-based, ATP luminescence, cherry-pick samples, cytotoxicity control, dose response (AID 687004). The conditions noted are these: Homo sapiens. It counts as functional.
A further assay has as its system Cryptococcus neoformans. Description: PubChem AID 686997. It counts as functional, organism-based.
In a further assay the test system is HepG2. The assay is described as follows: HepG2 Cytotoxicity Assay Measured in Cell-Based System Using Plate Reader - 7071-02_Inhibitor_Dose_CherryPick_Activity. It counts as functional. Particulars: Homo sapiens.
Assay [28] in a line: anti-trypanosomal activity in BESM host cells – imaging, CA-I/72 strain, bovine embryo skeletal muscle, dry powder, dose response (AID 651885). It counts as functional, cell-based.
Assay [29] in a line: viability loss in CEM21 cells – cell-based, CellTiter-Glo luminescence, cherry-picked, cytotoxicity control for viral fusion inhibitor project, dose response (AID 652042).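 Further: potency for signal decrease meaning cytotoxicity.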 It counts as functional.
Assay [30] is described as follows: blockers of HIV-1 envelope-mediated cell-cell fusion – cherry-pick, dose response (AID 652057). It counts as functional, cell-based.
The nature of assay [31]: HIV-1 AD8 envelope cell-cell fusion blockers – cherry-pick, dose response (AID 652062).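 Further: luciferase signal from cell-cell fusion driven by HIV-1 clade B AD8 Env; potency is for inhibitors of fusion seen as a drop in luminescence.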 The assay is classed as functional, cell-based.
Assay [32] in a line: blockers of HIV-1 ZM109 envelope-driven cell-cell fusion – HeLa effector, CEM target cells, luciferase, cherry-pick, dose response (AID 652058).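 Further: luciferase signal from HIV-1 Env mediated cell-cell fusion of effector and target cells.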 The assay is classed as functional, cell-based.
The target of assay [33] is T2, Trace amine-associated receptor 1. The assay is described as follows: Counterscreen for agonists of the human trace amine associated receptor 1 (hTAAR1): Fluorescence-based cell-based high throughput dose response assay to identify hTAAR1 agonist that also desensitize TAAR1 receptor response. It counts as functional.
Assay [34] can be described thus: cells. The assay is classed as functional, cell-based. This is another data set of the same source.
In assay [35] the target is T2, Trace amine-associated receptor 1. The assay is described as follows: Fluorescence-based cell-based high throughput dose response assay to identify agonists of the human trace amine associated receptor 1 (TAAR1). It counts as functional.
Assay [36] is described as follows: cells. The assay is classed as functional, cell-based. This is another data set of the same source.

Activity calls are given as the source filed them. Some results are limits rather than exact numbers.

By AC50 is commonly meant the concentration giving half of the maximal activity seen. In general, EC50 refers to the concentration that produces a half-maximal response. A word on the IC50: it is the concentration that inhibits the measured activity by half.

Sequence of Protein Tat (P04608 whole entry): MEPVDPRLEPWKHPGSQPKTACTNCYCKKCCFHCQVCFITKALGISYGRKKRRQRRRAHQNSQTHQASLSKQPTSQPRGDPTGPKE
Sequence of X-box-binding protein 1 (P17861 whole entry): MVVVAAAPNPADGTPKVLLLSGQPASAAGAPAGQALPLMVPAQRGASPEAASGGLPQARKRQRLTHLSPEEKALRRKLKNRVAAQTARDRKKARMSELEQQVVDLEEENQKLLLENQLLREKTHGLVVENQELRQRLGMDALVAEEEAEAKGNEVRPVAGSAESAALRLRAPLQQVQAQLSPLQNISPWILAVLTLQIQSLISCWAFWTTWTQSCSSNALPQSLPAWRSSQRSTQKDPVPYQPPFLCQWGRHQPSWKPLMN
Sequence of Nuclear receptor subfamily 0 group B member 1 (P51843 whole entry): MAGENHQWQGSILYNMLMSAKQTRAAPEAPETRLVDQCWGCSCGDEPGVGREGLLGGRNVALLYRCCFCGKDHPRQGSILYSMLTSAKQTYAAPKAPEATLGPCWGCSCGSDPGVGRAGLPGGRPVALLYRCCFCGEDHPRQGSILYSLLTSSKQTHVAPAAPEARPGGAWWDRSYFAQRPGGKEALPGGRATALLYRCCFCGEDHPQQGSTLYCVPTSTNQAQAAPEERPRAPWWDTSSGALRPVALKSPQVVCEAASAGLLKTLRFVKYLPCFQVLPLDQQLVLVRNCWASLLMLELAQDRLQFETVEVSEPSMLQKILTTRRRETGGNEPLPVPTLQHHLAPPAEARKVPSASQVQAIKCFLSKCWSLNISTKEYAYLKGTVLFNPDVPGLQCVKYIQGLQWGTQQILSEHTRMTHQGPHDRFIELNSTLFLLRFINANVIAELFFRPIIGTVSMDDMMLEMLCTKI
Sequence of Paired box protein Pax-8 (Q06710 whole entry): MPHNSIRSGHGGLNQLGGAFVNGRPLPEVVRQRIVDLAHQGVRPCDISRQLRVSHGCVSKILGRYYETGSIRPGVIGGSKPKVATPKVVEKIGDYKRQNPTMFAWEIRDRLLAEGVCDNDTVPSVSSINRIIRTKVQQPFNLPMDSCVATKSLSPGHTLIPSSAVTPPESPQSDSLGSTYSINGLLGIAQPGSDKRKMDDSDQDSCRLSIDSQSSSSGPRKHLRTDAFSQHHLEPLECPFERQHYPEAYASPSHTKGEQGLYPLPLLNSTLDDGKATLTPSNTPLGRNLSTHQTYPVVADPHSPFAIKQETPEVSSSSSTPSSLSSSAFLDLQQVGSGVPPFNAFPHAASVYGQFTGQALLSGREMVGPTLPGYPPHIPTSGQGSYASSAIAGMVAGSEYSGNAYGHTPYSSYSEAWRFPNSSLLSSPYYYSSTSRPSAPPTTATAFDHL
Sequence of Fructose-bisphosphate aldolase (P9WQA3 whole entry): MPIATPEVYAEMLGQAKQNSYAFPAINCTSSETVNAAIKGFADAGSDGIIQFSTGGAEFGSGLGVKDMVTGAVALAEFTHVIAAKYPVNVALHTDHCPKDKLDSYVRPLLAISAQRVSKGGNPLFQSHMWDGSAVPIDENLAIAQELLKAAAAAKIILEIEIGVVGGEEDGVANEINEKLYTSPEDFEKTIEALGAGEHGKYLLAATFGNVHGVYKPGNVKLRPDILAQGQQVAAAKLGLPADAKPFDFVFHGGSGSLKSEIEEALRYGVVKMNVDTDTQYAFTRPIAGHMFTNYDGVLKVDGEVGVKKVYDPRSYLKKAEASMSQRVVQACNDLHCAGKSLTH

Consider `COc1ccc2c3c([nH]c2c1)[C@H](CO)N(C(=O)c1ccccc1)CC31CN(S(=O)(=O)c2cccs2)C1`, for which the AC50 with A549 is 26 µM (active).

With `CCOC(=O)N1CCC(NC(=O)c2ccc3c(c2)N=C(C)c2c(C)ccc(C)c2S3)CC1`, the EC50 in the assay on BJ [1] is 29.3 µM (active); in [2], 1.12 µM (active); in the assay with BJ [3] it was 1.52 µM (active); in the assay on BJ [5] it was 1.43 µM (active). At Paired box protein Pax-8, the half-maximal activity concentration (AC50) was 3.05 µM (active). Also, the IC50 (in “cells [4]”; in assay [6]) was > 67.5 µM (inactive) each time.

As to `Cc1c(C(=O)Nc2ccc(Cl)cc2)c2ccccn2c1CCc1ccncc1`, the EC50 in assay [7] was > 30 µM (not active); in assay [9] it was 2.16 µM (active). Besides, the IC50 in assay [8] was 0.468 µM (active); at Protein Tat, > 100 µM (active).

`CNC(=O)C[C@H]1CC[C@H]2[C@@H](COc3ccc(NC(=O)C4CC4)cc3C(=O)N2C)O1`: the AC50 in assay [10] was 2.59 µM (active).

With `Cc1cc(Cl)n2c(nc3cc(F)c(F)cc32)c1C#N`, the EC50 in the assay with HEK293 [11] was > 59.6 µM (inactive); in the assay “cells [13]”, > 350 µM (not active); in the assay on HEK293 [15], > 59.6 µM (inactive); in the assay with BJ [18], 0.139 µM (inconclusive); in assay [19], 3.35 µM (active); in the assay “cells [20]”, 54.5 µM (active). Further, the AC50 was 14.8 µM (active) in assay [12], 4.49 µM (active) in assay [14], 3.56 µM (active) in assay [16] and 6.62 µM (active) in assay [17]. Further, the “Absolute IC50 (XBP1)” value at X-box-binding protein 1 is 10 µM.

Consider `Cc1nc(NC(C)c2ccccc2)c2oc3ccccc3c2n1` (stereo unspecified), for which the AC50 is 35.1 µM (active) in [12]; 46.5 µM (active) in assay [21]; 3.06 µM (active) in assay [16]; 24 µM (active) in assay [17]; 3.44 µM (active) in assay [22].

Consider `CC(c1ccc(Cl)cc1)N1CC2(C1)CN(C(C)C)C(=O)c1cccc(NC(=O)c3ccncc3)c1O2` (stereo unspecified), for which the AC50 in [23] is 0.556 µM (active).

For `CCNC(=S)N/N=C/c1cc(C)n(-c2ccc(Cl)cc2)c1C`, the IC50 was 1.13 µM (active) in assay [24] and > 29.9 µM (inactive) in assay [25]. The values for the EC50 in [26] and in assay [27] were > 29.9 µM (inactive) and 13.6 µM (inactive), respectively.

`CCOC(=O)NC(=S)Nc1ccc(C(C)(C)C)cc1Br`: the figures for the AC50 with HeLa, in the assay with Cryptococcus neoformans and in the assay with HepG2 were > 52 µM (inactive), > 70 µM (inactive) and 18.1 µM (active), respectively.

With `CC(C)N1C[C@H](C)[C@@H](CN(C)C(=O)OC(C)(C)C)Oc2c(C(=O)O)cccc2C1=O`, the IC50 in [28] was > 20 µM (inactive).

On to `Cc1nc2ccc(NC(=O)c3ccc(Cl)c(S(=O)(=O)N(C)c4ccccc4)c3)cc2s1`, for which the AC50 is 58.6 µM (active) in [29], 35.5 µM (active) in [30], 3.19 µM (active) in assay [31] and 3.88 µM (active) in assay [32].

On to `CCC(C)(C)n1nnnc1C(c1ccc(O)cc1)N1CCc2ccccc2C1` (stereo unspecified), for which the IC50 was 1.26 µM (active) in [33] and > 29.9 µM (inactive) in “cells [34]”. Besides, the values for the EC50 (in [35]; in “cells [36]”) were 0.333 µM (active) and > 29.9 µM (inactive), respectively.
